Data on 34 compounds can be found in US9403832B2, “Pyrazolo[1,5-a]pyrimidine-based compounds, compositions comprising them, and methods of their use” (Lexicon Pharmaceuticals, Inc., priority 2012, dated 2016).

One may read the IC50 as the point on the concentration scale where inhibition reaches its midpoint.

This experiment concerns the target T1, AAK1 (Homo sapiens, UniProt Q2M2I8).
T1 construct: NP_055726.2
Briefly: P81 filter plate assay. In kind it is biochemical. The settings on record: full-length human AAK1, Mu2 substrate, 33P-ATP. As to the method: Compounds were serially diluted into a Labcyte LDV plate (Labcyte, cat#LP-0200) using a Mutiprobe (PerkinElmer) and Biomek FX (Beckman Coulter) so that the highest compound concentration was at 96 μM. Compounds were then pinged (75 nL per well) into a Greiner 384-well reaction plate (Greiner, #781076) using an ECHO 550 Liquid Handler (Labcyte). A total of 12 μl reaction buffer (IMAP buffer containing Tween and DTT, from Molecular Devices) was then added to each well of columns 1 and 13 for the negative controls and 12 μl of 2× AAK1 (0.2 nM full-length human protein, NCBI accession no. NP_055726.2) was added to the remaining wells. Enzyme was then pre-incubated with compound for 10 minutes at RT. Reactions were initiated upon Minitrak (PerkinElmer) addition of 12 μl substrate mix containing 2× Mu2 (0.2 μM, full length human protein), 2× cold ATP (2 μM), and 1.3 μCi of hot ^33P-ATP. […] proceeded for one hour at RT. Meanwhile, Millipore 384-well P81 filter plates (Millipore, catalog #MZPHNOW10) were placed on a plate washer (Zoom ZW, from Titertek) and pre-wet with 50 μl 1% phosphoric acid. Kinase reactions were then stopped upon addition of 24 μl of 2% phosphoric acid to each well and the Minitrak was then used to transfer 40 μl from each well into the pre-wet Millipore 384-well P81 filter plates. Reaction mixtures were incubated for 10 minutes at RT in the P81 plates, followed by washing five times with 100 μl/well of 1% phosphoric acid using the Zoom filter washer. The bottom of each filter plate was sealed followed by addition of 20 μl Microscint 40 to each well, sealing the top of the plates with Flashplate cover, and then waiting one hour until reading on the TopCount (PerkinElmer).

T1 sequence (Q2M2I8 1-863 isoform Q2M2I8-2): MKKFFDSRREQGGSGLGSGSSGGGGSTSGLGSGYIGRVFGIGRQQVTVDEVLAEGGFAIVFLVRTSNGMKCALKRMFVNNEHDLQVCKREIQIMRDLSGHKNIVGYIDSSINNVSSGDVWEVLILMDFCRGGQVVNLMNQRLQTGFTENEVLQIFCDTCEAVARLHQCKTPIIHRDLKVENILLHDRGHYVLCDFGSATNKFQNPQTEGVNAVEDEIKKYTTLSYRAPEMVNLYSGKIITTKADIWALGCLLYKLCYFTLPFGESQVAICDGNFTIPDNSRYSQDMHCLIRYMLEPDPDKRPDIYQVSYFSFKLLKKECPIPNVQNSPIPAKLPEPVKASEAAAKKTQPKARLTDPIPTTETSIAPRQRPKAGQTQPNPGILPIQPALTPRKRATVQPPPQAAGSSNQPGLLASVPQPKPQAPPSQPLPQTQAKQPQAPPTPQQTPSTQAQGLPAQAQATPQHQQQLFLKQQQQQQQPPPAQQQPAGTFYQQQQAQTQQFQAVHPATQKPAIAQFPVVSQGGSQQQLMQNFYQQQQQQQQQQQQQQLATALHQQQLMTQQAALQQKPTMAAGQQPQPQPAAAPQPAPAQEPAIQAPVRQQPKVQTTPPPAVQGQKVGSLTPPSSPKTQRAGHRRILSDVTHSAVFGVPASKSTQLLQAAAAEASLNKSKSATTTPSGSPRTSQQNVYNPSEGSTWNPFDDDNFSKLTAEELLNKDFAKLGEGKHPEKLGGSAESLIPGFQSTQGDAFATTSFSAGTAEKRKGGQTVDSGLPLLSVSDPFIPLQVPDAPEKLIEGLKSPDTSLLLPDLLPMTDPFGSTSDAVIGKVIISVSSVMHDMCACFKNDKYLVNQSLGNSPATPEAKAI

`COc1c(F)cccc1-c1cnn2ccc(N3CCN(C(=O)OC(C)C)CC3)nc12` [isopropyl 4-(3-(3-fluoro-2-methoxyphenyl)pyrazolo[1,5-a]pyrimidin-5-yl)piperazine-1-carboxylate] yielded an IC50 not above 100 nM.
As for `COc1ncc(F)cc1-c1cnn2ccc(N(C)CCCN(C)C(=O)OC(C)C)nc12` [isopropyl (3-((3-(5-fluoro-2-methoxypyridin-3-yl)pyrazolo[1,5-a]pyrimidin-5-yl)(methyl)amino)propyl)(methyl)carbamate], the concentration for half-maximal inhibition (IC50) was not above 10 nM.
Consider `COc1ncccc1-c1cnn2ccc(N3CCN(CCC(F)(F)F)CC3)nc12` [3-(2-methoxypyridin-3-yl)-5-(4-(3,3,3-trifluoropropyl)piperazin-1-yl)pyrazolo[1,5-a]pyrimidine], for which the half-inhibitory concentration (IC50) was not above 1000 nM.
The compound `CCCC(=O)Nc1ccn2ncc(-c3cccnc3OC)c2n1` [N-(3-(2-methoxypyridin-3-yl)pyrazolo[1,5-a]pyrimidin-5-yl)butyramide] had an IC50 not above 100 nM.
In the case of `CC(C)OC(=O)N1CCN(c2ccn3ncc(C(F)(F)F)c3n2)CC1` [isopropyl 4-(3-(trifluoromethyl)pyrazolo[1,5-a]pyrimidin-5-yl)piperazine-1-carboxylate] it was not above 1000 nM; in that of `COc1ccccc1-c1cnn2ccc(NC[C@@H]3CCCN3C(=O)NC(C)(C)C)nc12` [(S)-N-(tert-butyl)-2-(((3-(2-methoxyphenyl)pyrazolo[1,5-a]pyrimidin-5-yl)amino)methyl)pyrrolidine-1-carboxamide], not above 10 nM.
Turning to `COc1nc(C)ccc1-c1cnn2ccc(N(C)CCN(C)C(=O)OC(C)C)nc12` [isopropyl (2-((3-(2-methoxy-6-methylpyridin-3-yl)pyrazolo[1,5-a]pyrimidin-5-yl)(methyl)amino)ethyl)(methyl)carbamate], the IC50 is not above 100 nM.
In the case of `COc1ncccc1-c1cnn2ccc(N3CCN4C(=O)N(CC(C)C)CC4C3)nc12` (stereo not shown) [2-isobutyl-7-(3-(2-methoxypyridin-3-yl)pyrazolo[1,5-a]pyrimidin-5-yl)hexahydroimidazo[1,5-a]pyrazin-3(2H)-one] it was not above 10 nM.
In turn, `COCCOC(=O)N1CCN(c2ccn3ncc(-c4cccnc4OC)c3n2)CC1` [2-methoxyethyl 4-(3-(2-methoxypyridin-3-yl)pyrazolo[1,5-a]pyrimidin-5-yl)piperazine-1-carboxylate] returned an IC50 not above 10 nM.
On to `COc1ncccc1-c1cnn2ccc(N3CCN(C(=O)OC(C)C)C3=O)nc12` [isopropyl 3-(3-(2-methoxypyridin-3-yl)pyrazolo[1,5-a]pyrimidin-5-yl)-2-oxoimidazolidine-1-carboxylate], for which the half-maximal inhibitory concentration (IC50) is not above 1000 nM.
To `COc1ncccc1-c1cnn2ccc(N3CCN(C[C@@H](N)CC(C)C)CC3)nc12` [(S)-1-(4-(3-(2-methoxypyridin-3-yl)pyrazolo[1,5-a]pyrimidin-5-yl)piperazin-1-yl)-4-methylpentan-2-amine] belongs not above 100 nM.
`COc1ncncc1-c1cnn2ccc(N3CCN(C(=O)OC(C)C)CC3)nc12` [isopropyl 4-(3-(4-methoxypyrimidin-5-yl)pyrazolo[1,5-a]pyrimidin-5-yl)piperazine-1-carboxylate] gave an IC50 not above 100 nM.
For the compound `COc1ncccc1-c1cnn2ccc(N3CCN(C(=O)[C@H](N)CC(C)C)CC3)nc12` [(R)-2-amino-1-(4-(3-(2-methoxypyridin-3-yl)pyrazolo[1,5-a]pyrimidin-5-yl)piperazin-1-yl)-4-methylpentan-1-one], the IC50 is not above 100 nM.
For the compound `COC/C=C/c1cnn2ccc(N3CCN(C(=O)OC(C)C)CC3)nc12` [(E)-isopropyl 4-(3-(3-methoxyprop-1-en-1-yl)pyrazolo[1,5-a]pyrimidin-5-yl)piperazine-1-carboxylate], the IC50 was not above 1000 nM.
The compound `COc1ncc(F)cc1-c1cnn2ccc(N3CCN(CCC(F)(F)F)CC3)nc12` [3-(5-fluoro-2-methoxypyridin-3-yl)-5-(4-(3,3,3-trifluoropropyl)piperazin-1-yl)pyrazolo[1,5-a]pyrimidine] had an IC50 not above 1000 nM.
For the compound `COc1ncccc1-c1cnn2ccc(N3CCN(C(=O)[C@@H]4COCCN4)CC3)nc12` [(S)-(4-(3-(2-methoxypyridin-3-yl)pyrazolo[1,5-a]pyrimidin-5-yl)piperazin-1-yl)(morpholin-3-yl)methanone], the IC50 is not above 10 nM.
To `COc1ncccc1-c1cnn2ccc(NCCNC(=O)OC(C)C)nc12` [isopropyl (2-((3-(2-methoxypyridin-3-yl)pyrazolo[1,5-a]pyrimidin-5-yl)amino)ethyl)carbamate] belongs not above 100 nM; to `CC(C)OC(=O)N1CCN(c2ccn3ncc(-c4cccn(C)c4=O)c3n2)CC1` [isopropyl 4-(3-(1-methyl-2-oxo-1,2-dihydropyridin-3-yl)pyrazolo[1,5-a]pyrimidin-5-yl)piperazine-1-carboxylate], not above 10 nM; to `CC(C)OC(=O)N(C)[C@H]1CCN(c2ccn3ncc(-c4ccccn4)c3n2)C1` [(S)-isopropyl methyl(1-(3-(pyridin-2-yl)pyrazolo[1,5-a]pyrimidin-5-yl)pyrrolidin-3-yl)carbamate], not above 1000 nM.
The compound `COc1ncccc1-c1cnn2ccc(OCCN(C)C(=O)OC(C)(C)C)nc12` [tert-butyl (2-((3-(2-methoxypyridin-3-yl)pyrazolo[1,5-a]pyrimidin-5-yl)oxy)ethyl)(methyl)carbamate] returned a concentration for half-maximal inhibition (IC50) not above 10 nM.
The compound `COc1ncc(C)cc1-c1cnn2ccc(N(C)CCN(C)C(=O)OC(C)C)nc12` [isopropyl (2-((3-(2-methoxy-5-methylpyridin-3-yl)pyrazolo[1,5-a]pyrimidin-5-yl)(methyl)amino)ethyl)(methyl)carbamate] had an IC50 not above 100 nM.
The compound `FC(F)(F)CN1CCN(c2ccn3ncc(Br)c3n2)CC1` [3-bromo-5-(4-(2,2,2-trifluoroethyl)piperazin-1-yl)pyrazolo[1,5-a]pyrimidine] showed an IC50 not above 100 nM.
On to `COc1ncccc1-c1cnn2ccc(N(C)CCN(C)C(=O)OC(C)C)nc12` [isopropyl (2-((3-(2-methoxypyridin-3-yl)pyrazolo[1,5-a]pyrimidin-5-yl)(methyl)amino)ethyl)(methyl)carbamate], for which the half-maximal inhibitory concentration (IC50) is not above 100 nM.
`COC(=O)c1ccc(-c2cnn3ccc(N4CCN(C(=O)OC(C)C)CC4)nc23)cc1` [isopropyl 4-(3-(4-(methoxycarbonyl)phenyl)pyrazolo[1,5-a]pyrimidin-5-yl)piperazine-1-carboxylate]: the half-inhibitory concentration (IC50) is not above 100 nM.
To `COc1ncccc1-c1cnn2ccc(N(C)CCN(C)C(=O)[C@@H](N)CC(C)C)nc12` [(S)-2-amino-N-(2-((3-(2-methoxypyridin-3-yl)pyrazolo[1,5-a]pyrimidin-5-yl)(methyl)amino)ethyl)-N,4-dimethylpentanamide] belongs not above 10 nM.
`CC(C)(C)OC(=O)N1CCC[C@H]1CNc1ccn2ncc(C(F)(F)F)c2n1` [(S)-tert-butyl 2-(((3-(trifluoromethyl)pyrazolo[1,5-a]pyrimidin-5-yl)amino)methyl)pyrrolidine-1-carboxylate] returned a half-maximal inhibitory concentration (IC50) not above 10 nM.
In the case of `CC(C)OC(=O)N1CCN(c2ccn3ncc(-c4cccc5nccn45)c3n2)CC1` [isopropyl 4-(3-(imidazo[1,2-a]pyridin-5-yl)pyrazolo[1,5-a]pyrimidin-5-yl)piperazine-1-carboxylate] it was not above 100 nM.
`CC(C)OC(=O)N1CCN(c2ccn3ncc(-c4ccnnc4)c3n2)CC1` [isopropyl 4-(3-(pyridazin-4-yl)pyrazolo[1,5-a]pyrimidin-5-yl)piperazine-1-carboxylate] showed an IC50 not above 1000 nM.
Turning to `CC(C)(C)OC(=O)N1CCC[C@H]1CNc1ccn2ncc(-c3ccccc3)c2n1` [(S)-tert-butyl 2-(((3-phenylpyrazolo[1,5-a]pyrimidin-5-yl)amino)methyl)pyrrolidine-1-carboxylate], the IC50 is not above 10 nM.
`CN(C(=O)OC(C)(C)C)[C@H]1CCN(c2ccn3ncc(-c4ccccn4)c3n2)C1` [(S)-tert-butyl methyl(1-(3-(pyridin-2-yl)pyrazolo[1,5-a]pyrimidin-5-yl)pyrrolidin-3-yl)carbamate] yielded a half-inhibitory concentration (IC50) not above 1000 nM.
`COc1ncccc1-c1cnn2ccc(N3CCN(C(=O)C(C)(C)N)CC3)nc12` [2-amino-1-(4-(3-(2-methoxypyridin-3-yl)pyrazolo[1,5-a]pyrimidin-5-yl)piperazin-1-yl)-2-methylpropan-1-one] showed a 50% inhibitory concentration (IC50) not above 100 nM.
The compound `COc1ncc(C)cc1-c1cnn2ccc(N3CC[C@H](N(C)C(=O)OC(C)C)C3)nc12` [(S)-isopropyl (1-(3-(2-methoxy-5-methylpyridin-3-yl)pyrazolo[1,5-a]pyrimidin-5-yl)pyrrolidin-3-yl)(methyl)carbamate] returned an IC50 not above 10 nM.
In turn, `COCC(COC)OC(=O)N1CCN(c2ccn3ncc(-c4cccnc4OC)c3n2)CC1` [1,3-dimethoxypropan-2-yl 4-(3-(2-methoxypyridin-3-yl)pyrazolo[1,5-a]pyrimidin-5-yl)piperazine-1-carboxylate] gave an IC50 not above 100 nM.
Compound `COc1nc(C)ccc1-c1cnn2ccc(NCCOC(C)(C)C)nc12` [N-(2-(tert-butoxy)ethyl)-3-(2-methoxy-6-methylpyridin-3-yl)pyrazolo[1,5-a]pyrimidin-5-amine] came in with an IC50 not above 100 nM.
